Data on three substances can be found in patent publication US4882234A, “Storage-stable porphin compositions and a method for their manufacture” (Healux, Inc., priority 1986, dated 1989).

This series relates to albino mouse ear vasculature. As to the kind of experiment: Phototoxicity to normal skin vasculature, Evans blue assay in albino mouse ear. Set-up: species or system Swiss-Webster mice. Conditions: in vivo; for M.E.D. (minimum effective dose to damage ear vasculature): 1440 min. An excerpt: The major side effect of hematoporphyrin derivative preparations in tumor phototherapy is the extended phototoxicity to normal skin (by way of the exposed skin vasculature) for a month or longer after injection of therapeutic doses.
The Evans blue assay method assumes that the primary site of photodamage is the vascular system and uses Evans blue (colloidal dye) extravasation through damaged vascular wall into surrounding tissues to measure the relative phototoxicity as the minimum effective dose (M.E.D.) of photosensitizer necessary to cause a statistically significant increase in tissue Evans blue content. The higher the dose of photosensitizer required the lower the phototoxicity. […] This is possibly due in site aggregation and inhibition of the photosensitized reaction.

With Photofrin, the “Relative phototoxicity at higher doses” value was “relative phototoxicity is decreased at higher doses”.

tetraphenyl porphyrin sulfonate [TPPS]: the “Evans Blue Increase” value is on record as 84% and the “M.E.D. (minimum effective dose to damage ear vasculature)” value is on record as 2.5 mg/kg.

On to zinc phthalocyanine sulfonate [ZPS], for which the “Evans Blue Increase” value amounted to 30% and the “M.E.D. (minimum effective dose to damage ear vasculature)” value is on record as 22 mg/kg.
